In assay [1] the test system is mouse embryonic fibroblasts (MEFs). As to the kind of experiment: OSKM reprogramming of MEFs with drug treatment, alkaline phosphatase (AP) staining / sensitivity score. In kind it is cell-based. The procedure:
For infection, P1 mouse embryonic fibroblasts (MEFs) were thawed and plated at 1×10^6 cells per 10 cm dish on the previous day. Infection proceeded in two rounds with 8 h to 9 h in between. Briefly, cells were incubated with an OSKM/rtta virus mix (1:1), supplemented with 8 ug/ml protamine sulfate (Fisher Scientific #0219472905). The infection mix was removed on the following day and cells were left to recover in fresh MEF media (DMEM HG Thermo Fisher Scientific #10569010 with 10% FBS Atlanta Biologicals #S11150, Glutamax Thermo Fisher Scientific #35050079 and PenStrep Thermo Fisher Scientific 15140163).
Two days after infection, cells were re-plated for transduction efficiency assessment on day 3, molecular analyses on day 5, colony picking on day 16 and alkaline phosphatase (AP) staining on day 20. In each experiment, infected fibroblasts from the different genotypes were replated at multiple densities to allow for optimal reprogramming efficiency. For wild-type cells, 100-300 cells/mm^2 (20-60K per well of a 24 w dish) routinely generated high numbers of iPS cell clones. Besides for wild-type, 20-60K per well of a 24 w dish was also optimal for the Bard1 point mutants, Brca1^tr/+ and all combination mutations with Smarcal1 or 53bp1; Brca1^tr/tr, 53bp1^−/− as well as the heterozygous or homozygous Smarcal1 and 53bp1 single mutants. […] The remaining Brca1^tr/tr53BP1^+/− genotype was re-plated at 450 cells/mm^2 (90K/well of a 24 w dish). These seeding densities were later used to calculate the reprogramming efficiency of each genotype. The OSKM reprogramming factors were induced with 1 ug/ml doxycycline (Sigma #D9891) in mouse embryonic stem (mES) cell media, consisting of Knockout DMEM (Life Technologies #10829-018), supplemented with 15% Knockout Serum Replacement (Life Technologies #10828-028), Glutamax (Thermo Fisher Scientific #35050079), MEM NEAA (Life Technologies #11140050), PenStrep (Thermo Fisher Scientific 15140163), 2-mercaptoetahnol (Life Technologies #21985-023) and […] LIF (eBioscience #34-8521-82). Transduction efficiency was determined on reprogramming day 3 by staining for Sox2 (Stemgent #09-0024) and used in the calculation of reprograming efficiency. The reprogramming experiments with drug treatment used aphidicolin (Sigma #A0781) at 0.2 uM, Ttpotecan (Sigma #T2705) at 10 nM or the DNA PK inhibitor NU7026 (Tocris #2828) at 5 uM for 8 days during reprogramming.
Alternatively, for the induction of two-ended DSBs, cells were subjected to a single dose of 6 Gy IR 1 day post doxycycline-mediated OSKM factor induction. Cells were fixed on reprogramming day 18-20 and stained for alkaline phosphatase with the Vector Red detection kit (Vector Laboratories #SK-5100). Reprogramming efficiency was determined by considering the number of AP-positive colonies per number of infected cells, determined by Sox2 staining at the optimal plating density for each genotype. The sensitivity score in the experiments with aphidicolin, topotecan and IR was calculated as follows: the reprogramming efficiency of wild-type treated cells was determined as described above and normalized to the reprogramming efficiency of wild type untreated cells. The same procedure was applied to each mutant genotype. The sensitivity score was obtained by calculating the ratio of treated wild type (normalized to untreated wild type) to treated mutant (normalized to untreated mutant). A large score corresponds to high sensitivity.

For assay [2], the system named is wild-type uninfected MEFs. Nature of the assay: 53bp1 foci immunofluorescence in uninfected fibroblasts treated with aphidicolin. Format: cell-based, mouse. The following applies: 0.2 uM aphidicolin for 3 days. The procedure:
Detection of […], phospho RPA(S33) and 53bp1 was performed on reprogramming D5 with the following antibodies: Phospho-RPA2Ser33 (Invitrogen #PA5-39809); Anti-phosphoHistone H2A.X-Ser139 (Millipore #05-636); and 53BP1 Antibody H-300 (Santa Cruz #22760). For detection of Rad51, iPS cell lines were irradiated with 10 Gy and stained with Rad51 (Ab-1) Rabbit pAb (Millipore #PC130) 1.5 h post IR.
The DNA damage observed in the form of phosphorylated H2AX during reprogramming can be the result of global epigenetic remodeling (Hernandez et al., 2018), oxidative stress (Ji et al., 2014) or elevated replication stress (Ruiz et al., 2015). To determine the specific type of DNA damage which is most limiting to iPS cell generation, mouse embryonic fibroblasts (MEFs) were treated during reprogramming with the DNA polymerase inhibitor aphidicolin, which induces one-ended double strand breaks (DSBs), processed by HDR (Rothkamm et al., 2003). To test the effect of aphidicolin on primary cells, uninfected wild type fibroblasts were incubated with 0.2 uM aphidicolin for 3 days and noted an increase in the numbers of 53bp1 foci (FIG. 4B).

As to `O=c1cc(N2CCOCC2)oc2c1ccc1ccccc12` [DNA PK inhibitor, NU7026], in assay [1] (wild type MEFs, 5 uM DNA PK inhibitor for 8 days during reprogramming), the efficiency of reprogramming result is recorded as “no effect”.
On to `C[C@@]1(CO)[C@H](O)CC[C@@]2(C)[C@H]1CC[C@H]1C[C@@H]3C[C@@]12CC[C@]3(O)CO` [aphidicolin], for which the “numbers of 53bp1 foci” value in assay [2] is on record as “increase”. Further, the sensitivity of reprogramming result in assay [1] (53bp1^-/- mutants, 0.2 uM aphidicolin for 8 days during reprogramming) was “less sensitive”. Moreover, in assay [1] (Brca1^tr/tr53bp1^-/- cells, 0.2 uM aphidicolin for 8 days during reprogramming), the “reprogramming efficiency compared to the Brca1^tr/tr genotype” value is reported as “improvement of reprogramming efficiency”. Moreover, the “sensitivity of reprogramming (colony numbers relative to wild-type)” value in assay [1] (Brca1^tr/tr cells, 0.2 uM aphidicolin for 8 days during reprogramming) is “pronounced sensitivity”. Further, the reprogramming efficiency result in assay [1] (wild type cells, 0.2 uM aphidicolin for 8 days during reprogramming) is “reduced the efficiency of the process”.
For the molecule `CC[C@@]1(O)C(=O)OCc2c1cc1n(c2=O)Cc2cc3c(CN(C)C)c(O)ccc3nc2-1` [topotecan], the sensitivity of reprogramming entry in assay [1] (53bp1 null cells, 10 nM topotecan for 8 days during reprogramming) is listed as “reduced sensitivity”; in assay [1] (Brca1^tr/tr53bp1^-/- cells, 10 nM topotecan for 8 days during reprogramming), “mild sensitivity”; in assay [1] (wild-type cells, 10 nM topotecan for 8 days during reprogramming), “barely sensitive”. Moreover, in assay [1] (Brca1^tr/tr cells, 10 nM topotecan for 8 days during reprogramming), the reprogramming efficiency result was “greatly reduced efficiency”.

The values above are taken from US20220154184A1, “INCREASING GENOME STABILITY AND REPROGRAMMING EFFICIENCY OF INDUCED PLURIPOTENT STEM CELLS” (THE TRUSTEES OF COLUMBIA UNIVERSITY IN THE CITY OF NEW YORK, priority 2019, published 2022).
